Entries after “also recorded” stand apart in the source; their conditions may differ.
Tests used:
[1] = test system: ErbB-2; assay: ErbB-2 tyrosine phosphorylation by Western blot in C4HD cells; assay type: cell-based, mouse; conditions: MPA treatment of C4HD cells
Protocol: (§1) Primary cultures of epithelial cells from C4HD tumors were performed as described (2). T47D cells were obtained from American Type Culture Collection and T47D-Y cells were a generous gift from Dr. K. Horwitz (Denver, Colo.). To evaluate the effects of the pharmacological inhibitors on MPA-induced proteins phosphorylation or cyclin D1 expression, cells were preincubated for 90 min with RU486, PP2, Tyrphostin AG825 or Jak inhibitor I before addition of MPA. Cell proliferation was evaluated by [3H]-thymidine incorporation assay and cell cycle distribution was analyzed by flow cytometry, as described (22).
(§2) Lysates were prepared from cells subjected to the different treatments and proteins were subjected to SDS-PAGE as previously described (21). Membranes were immunoblotted with the antibodies detailed in each experiment. When phospho(p)-protein antibodies were used, filters were reprobed with total protein antibodies. Signal intensities of pErbB-2, pStat3, pSrc, pPR, pJak1, and pJak2 bands were analyzed by densitometry and normalized to total protein bands. Similarly, signal intensities of PR, cyclin D1, Stat3, and ErbB-2 bands were normalized to actin or β tubulin bands. […] The NEPER Nuclear and Cytoplasmic Extraction Reagents technique (Pierce Biotechnology) was performed as per manufacturer's instructions. […]

[2] = test system: mouse cyclin D1 promoter; assay: ChIP of Stat3 and ErbB-2 on the mouse cyclin D1 promoter in C4HD cells; assay type: cell-based; conditions: MPA 30 min
Protocol: (§3) ChIP was performed as described elsewhere (Hawthorne et al., 2005) with minor modifications. Briefly, chromatin was sonicated to an average of about 500 bp. Sonicated chromatin was then immunoprecipitated using 4 μg of either an anti-ErbB-2 or an anti-Stat3 antibody and rabbit IgG as control. The IP was collected using Protein A beads (Upstate Biotechnology, Lake Placid, N.Y.), which were washed repeatedly to remove nonspecific DNA binding. The chromatin was eluted from the beads and crosslinks were removed overnight at 65° C. DNA was then purified and quantified using real-time PCR. For sequential ChIP experiments, Stat3 immunoprecipitates were eluted with DTT and then subjected to a second round of immunoprecipitation with ErbB-2 antibody or with IgG.
(§4) ChIP DNA was amplified by real-time PCR (qPCR), performed with an ABI Prism 7500 sequence detector using SYBR green PCR master mix (Applied Biosystems, Foster City, Calif.). The primers used were as follows: 5′-TTCCGGTGGTCTGGTTCCT-3′ (SEQ ID NO:12) and 5′-[…]-3′(SEQ ID NO:13) designed to amplify a region of the mouse cyclin D1 promoter containing two GAS sites (−971 and −874), 5′-[…]-3′(SEQ ID NO:14) and 5′-[…]-3′ (SEQ ID NO:15) designed to amplify a region of the human cyclin D1 promoter containing one GAS site (−984). These primers were designed with “Primer Express” real-time PCR primer design software (Applied Biosystems). […]

[3] = test system: cyclin D1; assay: Cyclin D1 protein levels by Western blot in C4HD cells; assay type: cell-based, mouse; conditions: MPA treatment of C4HD cells
Protocol: as §1, §2

[4] = test system: ErbB-2; assay: ErbB-2 cellular localization (subcellular fractionation/immunoblot, confocal microscopy) in C4HD cells; assay type: cell-based, mouse; conditions: MPA treatment of C4HD cells, 15 to 60 min
Protocol: Lysates were prepared from cells subjected to the different treatments and proteins were subjected to SDS-PAGE as previously described (21). Membranes were immunoblotted with the antibodies detailed in each experiment. When phospho(p)-protein antibodies were used, filters were reprobed with total protein antibodies. Signal intensities of pErbB-2, pStat3, pSrc, pPR, pJak1, and pJak2 bands were analyzed by densitometry and normalized to total protein bands. Similarly, signal intensities of PR, cyclin D1, Stat3, and ErbB-2 bands were normalized to actin or β tubulin bands. […]
Cells grown on glass coverslips were fixed and permeabilized in ice-cold methanol and were then blocked with PBS 1% BSA. ErbB-2 was localized using either a rabbit polyclonal (C-18) or a mouse monoclonal (F-11) ErbB-2 antibody (Santa Cruz Biotechnology) and Stat3 was detected using a mouse monoclonal antibody (124H6, Cell Signaling), followed by incubation with a goat anti-rabbit IgG-Alexa 488 (Molecular Probes, Eugene, Oreg.) secondary antibody for ErbB-2 (C-18) and with a rhodamine conjugated goat anti-mouse secondary antibody (Jackson ImmunoResearch Laboratories, West Grove, Pa.) for both ErbB2 (F-11) and Stat3. […] When cells were transfected with hErbB-2ΔNLS, green fluorescent protein from this expression vector was visualized by direct fluorescence imaging. […]

[5] = test system: ErbB-2; assay: ErbB-2 tyrosine phosphorylation by Western blot in T47D cells; assay type: cell-based, human; conditions: MPA
Protocol: as §1
Lysates were prepared from cells subjected to the different treatments and proteins were subjected to SDS-PAGE as previously described (21). Membranes were immunoblotted with the antibodies detailed in each experiment. When phospho(p)-protein antibodies were used, filters were reprobed with total protein antibodies. Signal intensities of pErbB-2, pStat3, pSrc, pPR, pJak1, and pJak2 bands were analyzed by densitometry and normalized to total protein bands. Similarly, signal intensities of PR, cyclin D1, Stat3, and ErbB-2 bands were normalized to actin or β tubulin bands. […] The NEPER Nuclear and Cytoplasmic Extraction Reagents technique (Pierce Biotechnology) was performed as per manufacturer's instructions. Nuclear association between ErbB-2 and Stat3 was studied by performing coimmunoprecipitation experiments using 200 μg of nuclear protein lysates as described (22).

[6] = test system: human cyclin D1 promoter; assay: ChIP of Stat3 and ErbB-2 on the human cyclin D1 promoter in T47D cells; assay type: cell-based; conditions: MPA 30 min, primers flanking the −984 GAS site
Protocol: as §3, §4

CC(=O)O[C@]1(C(C)=O)CC[C@H]2[C@@H]3C[C@H](C)C4=CC(=O)CC[C@]4(C)[C@H]3CC[C@@]21C [MPA, Medroxyprogesterone acetate]
ErbB-2 phosphorylation at Tyr 1272 and Tyr 927 [1]: induces a rapid phosphorylation
binding of nuclear Stat3 and ErbB-2 to the mouse cyclin D1 promoter [2]: significant and specific
cyclin D1 protein levels [3]: significant increase
ErbB-2 nuclear translocation [4]: resulted in ErbB-2 nuclear localization; also recorded: induced a strong ErbB-2 protein nuclear translocation
ErbB-2 phosphorylation at Tyr 1222 or Tyr 877 ([5]; PR-null T47D cells (T47D-Y)): no effect
ErbB-2 phosphorylation at Tyr 1222 and Tyr 877 ([5]; T47D-Y cells transfected with human PR-B (T47D-Y-PR-B)): markedly enhanced
occupancy by Stat3 and ErbB-2 of the human cyclin D1 promoter [6]: striking increase

— US9427458B2, “Methods for inhibiting cancer cell proliferation” (Consejo Nacional de Investigaciones Cientificas y Tecnicas, …, priority 2010, dated 2016)
